Test systems include 786-0; A498; A549; HCT-15; HOP-92; HT-29; IGROV-1; K562; LOX IMVI; MCF7; MDA-MB-435; NCI-H460; OVCAR-8; SF-295; SK-OV-3; SN12C; T47D; UACC-257.
Assay in all cases: inhibition of tumour cell growth, NCI panel, 48 h

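Values below derive from 48-hour exposures of cells grown in 96-well plates, with endpoints linearly interpolated between the two concentrations bracketing the appropriate inhibition level. Here, GI50 denotes the concentration required for 50% inhibition of growth.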 The source made the active and inactive calls. No stated cut-off is given here; in the data, active = GI50 up to about 1.1 µM and inactive = higher.

For the compound `Cc1cc(/N=C/c2ccc(N(C)C)cc2)n(-c2ccccc2)n1`, the GI50 in the test with 786-0 was 51.8 µM (inactive); in the test on A498, 26.1 µM (inactive); in the test on A549 it was 42.4 µM (inactive); with HCT-15, 15.6 µM; in the test with HOP-92, > 100 µM (inactive); in the test on HT-29 it was 12.6 µM (inactive). Also, the GI50 was 50.6 µM (inactive) in the test with IGROV-1; 44.6 µM (inactive) in the test on K562; 48.3 µM (inactive) in the test with LOX IMVI; 31 µM (inactive) with MCF7; 4.4 µM (inactive) with MDA-MB-435; 23.9 µM (inactive) in the test with NCI-H460. The GI50 with OVCAR-8 is 78 µM (inactive); in the test on SF-295, 30.8 µM (inactive); with SK-OV-3 it was 20.2 µM (inactive); in the test with SN12C it was 28.4 µM (inactive); with T47D, 18.5 µM (inactive); in the test with UACC-257, 91.4 µM (inactive).

As for `O=C(NCCCl)NCc1ccccc1`, the GI50 was > 100 µM (inactive) in the test on 786-0; > 100 µM (inactive) with A498; > 100 µM (inactive) in the test on A549; over 100 µM in the test on HCT-15; > 100 µM (inactive) in the test with HOP-92; > 100 µM (inactive) in the test on HT-29. The GI50 is > 100 µM (inactive) in the test with IGROV-1; > 100 µM (inactive) in the test with K562; > 100 µM (inactive) in the test on LOX IMVI; > 100 µM (inactive) in the test with MCF7; > 100 µM (inactive) in the test on MDA-MB-435; 52.5 µM (inactive) with NCI-H460. Also, the GI50 with OVCAR-8, in the test with SF-295, in the test on SK-OV-3, in the test on SN12C, with T47D and in the test on UACC-257 was > 100 µM (inactive) throughout.

Consider `CC1=CP(=O)(c2c(C(C)C)cc(C(C)C)cc2C(C)C)CCC1Cl` (configuration not stated), for which the GI50 with 786-0 is 18.1 µM (inactive); in the test on A498 it was 15.9 µM (inactive); with A549 it was 14.1 µM (inactive); in the test on HCT-15 it was 16 µM; in the test on HOP-92, 13.6 µM (inactive); in the test on HT-29, 16.4 µM (inactive). Besides, the GI50 is 15.4 µM (inactive) with IGROV-1; 10.2 µM (inactive) in the test on K562; 18.8 µM (inactive) in the test on LOX IMVI; 15.4 µM (inactive) with MCF7; 17.7 µM (inactive) in the test on MDA-MB-435; 16 µM (inactive) in the test on NCI-H460. Further, the GI50 in the test on OVCAR-8 was 21.2 µM (inactive); with SF-295 it was 12.4 µM (inactive); with SK-OV-3, 19.4 µM (inactive); with SN12C it was 17.7 µM (inactive); in the test on T47D it was 11.6 µM (inactive); in the test on UACC-257, 11.6 µM (inactive).

As to `NS(=O)(=O)c1ccc(Nc2c3ccccc3nc3c(C(=O)NC(CO)(CO)CO)cccc23)cc1`, the GI50 in the test on 786-0 is 0.0201 µM (active); in the test with A498, 0.224 µM (active); in the test on A549 it was 0.123 µM (active); in the test with HCT-15 it was 0.282 µM; in the test with HOP-92 it was 0.153 µM (active); in the test on HT-29, 0.184 µM (active). Moreover, the GI50 in the test with IGROV-1 was 0.136 µM (active); in the test with K562 it was 0.19 µM (active); with LOX IMVI it was 0.132 µM (active); with MCF7, 0.0143 µM (active); with MDA-MB-435, 0.212 µM (active); with NCI-H460, 0.0668 µM (active). The GI50 in the test on OVCAR-8 is 0.181 µM (active); in the test on SF-295, 0.294 µM (active); in the test on SK-OV-3, 0.188 µM (active); with SN12C, 0.199 µM (active); with T47D, 0.0815 µM (active); in the test with UACC-257, 0.181 µM (active).

Regarding `N#Cc1cc(-c2nc3cc(F)ccc3s2)ccc1N`, the GI50 in the test with 786-0 was 27.6 µM (inactive); in the test on A498 it was 3.39 µM (inactive); with A549, 1.84 µM (inactive); in the test with HCT-15, 0.384 µM; with HOP-92, 4.08 µM (inactive); in the test on HT-29, 1.97 µM (inactive). The GI50 with IGROV-1 is < 0.0112 µM (active); with K562, > 100 µM (inactive); in the test on LOX IMVI, > 100 µM (inactive); in the test on MCF7 it was < 0.01 µM (active); in the test on MDA-MB-435 it was > 78.3 µM (inactive); in the test with NCI-H460, < 0.0226 µM (active). Further, the GI50 was > 67.9 µM (inactive) in the test with OVCAR-8; 20.4 µM (inactive) in the test with SF-295; 20.7 µM (inactive) with SK-OV-3; > 100 µM (inactive) with SN12C; < 0.012 µM (active) in the test with T47D; > 100 µM (inactive) in the test on UACC-257.

With `CC(C)(C)c1cc(C(=O)C2Cc3ccccc3C(=O)O2)cc(C(C)(C)C)c1O` (configuration not stated), the GI50 with 786-0 is 12.3 µM (inactive); in the test on A498 it was 13.5 µM (inactive); with A549, 13.1 µM (inactive); in the test with HCT-15, 12.4 µM; with HOP-92, 18.2 µM (inactive); with HT-29, 14.4 µM (inactive). Also, the GI50 with IGROV-1 is 14.5 µM (inactive); with K562, 11.4 µM (inactive); in the test with LOX IMVI, 11.9 µM (inactive); in the test with MCF7, 12.5 µM (inactive); with MDA-MB-435, 10.7 µM (inactive); with NCI-H460, 10.9 µM (inactive). For the same compound, the GI50 with OVCAR-8 was 10.4 µM (inactive); with SF-295, 14.1 µM (inactive); with SK-OV-3, 24 µM (inactive); with SN12C, 11.5 µM (inactive); with T47D, 16.5 µM (inactive); in the test on UACC-257 it was 11.6 µM (inactive).

As for `OCC(O)C(O)C(O)C(O)c1nc2cc(Cl)ccc2[nH]1` (configuration not stated), the GI50 with 786-0 was > 100 µM (inactive); in the test with A498 it was > 100 µM (inactive); with A549 it was > 100 µM (inactive); in the test with HCT-15, over 100 µM; in the test with HOP-92, > 100 µM (inactive); with HT-29 it was > 100 µM (inactive). The GI50 with IGROV-1, with K562, in the test on LOX IMVI, with MCF7, with MDA-MB-435 and with NCI-H460 was > 100 µM (inactive) each time. Besides, the GI50 with OVCAR-8 is > 100 µM (inactive); in the test on SF-295, 28.8 µM (inactive); in the test with SK-OV-3, 56.4 µM (inactive); in the test on SN12C, > 100 µM (inactive); in the test on T47D, > 100 µM (inactive); with UACC-257, > 100 µM (inactive).

With `CCOP(=O)(CCCC(O)CNc1cc(Cl)nc(N)n1)OCC` (configuration not stated), the GI50 was > 100 µM (inactive) in the test with 786-0; > 100 µM (inactive) with A498; > 100 µM (inactive) in the test with A549; over 100 µM in the test on HCT-15; > 100 µM (inactive) in the test with HOP-92; > 100 µM (inactive) with HT-29. Also, the GI50 in the test with IGROV-1, in the test on K562, in the test with LOX IMVI, with MCF7, in the test on MDA-MB-435 and in the test on NCI-H460 was > 100 µM (inactive) in each case. Also, the GI50 in the test on OVCAR-8, with SF-295, in the test on SK-OV-3, in the test on SN12C, with T47D and in the test with UACC-257 was > 100 µM (inactive) in each case.

On to `NC(=O)c1ccc(NS(=O)(=O)c2ccc(N)cc2)nc1`, for which the GI50 was > 100 µM (inactive) in the test with 786-0; > 100 µM (inactive) with A498; over 100 µM with HCT-15; > 100 µM (inactive) in the test with HOP-92; > 100 µM (inactive) in the test with HT-29; > 100 µM (inactive) in the test with IGROV-1. Besides, the GI50 in the test on K562, in the test with LOX IMVI, in the test on MCF7, in the test with MDA-MB-435, in the test with NCI-H460 and in the test on OVCAR-8 was > 100 µM (inactive) throughout. Besides, the GI50 with SF-295, in the test with SK-OV-3, in the test on SN12C, in the test on T47D and with UACC-257 was > 100 µM (inactive) throughout.

Consider `O=C(O)C1CC(O)CN1` (configuration not stated), for which the GI50 was > 100 µM (inactive) in the test with 786-0; > 100 µM (inactive) in the test with A498; > 100 µM (inactive) in the test with A549; over 100 µM in the test with HCT-15; > 100 µM (inactive) with HOP-92; > 100 µM (inactive) in the test on HT-29. Besides, the GI50 with IGROV-1, in the test on K562, in the test on LOX IMVI, in the test on MCF7, with MDA-MB-435 and in the test with NCI-H460 was > 100 µM (inactive) each time. For the same compound, the GI50 in the test with OVCAR-8, with SF-295, with SK-OV-3, with SN12C, in the test with T47D and with UACC-257 was > 100 µM (inactive) throughout.

Regarding `CCC1(O)CC(OC2CC(N(C)C)C(OC3CC(O)C(OC4OC(C)C(=O)C=C4N)C(C)O3)C(C)O2)c2c(O)c3c(c(O)c2C1C(=O)OC)C(=O)c1cccc(O)c1C3=O` (configuration not stated), the GI50 was 0.0021 µM (active) in the test on 786-0; 0.00105 µM (active) with A498; 0.00356 µM (active) in the test on A549; 0.0418 µM with HCT-15; 0.0164 µM (active) with HOP-92; 0.00475 µM (active) in the test with HT-29. For the same compound, the GI50 is 0.00354 µM (active) with IGROV-1; 0.000196 µM (active) in the test on K562; 0.0115 µM (active) in the test on LOX IMVI; 0.002 µM (active) in the test on MCF7; 0.00371 µM (active) with MDA-MB-435; 0.000452 µM (active) in the test on NCI-H460. Moreover, the GI50 was 0.00398 µM (active) in the test on OVCAR-8; 0.00134 µM (active) in the test on SF-295; 0.00274 µM (active) in the test with SK-OV-3; 0.0259 µM (active) in the test on SN12C; 0.0118 µM (active) in the test on T47D; 0.00836 µM (active) with UACC-257.

The values are drawn from ChEMBL document CHEMBL1201862, “PubChem BioAssay data set” (2004).
